Laboratory results from ChEMBL document CHEMBL1149582, “Synthesis of penaresidin derivatives and its biological activity” (Bioorg Med Chem, 2007).
Converted amounts (≈) assume the structure as drawn.

Columns and labels:
[1] = Cytotoxicity against human […] cells; type: functional, cell-based
Aspergillus niger = test: Antibacterial activity against Aspergillus niger IFM 5368; type: functional
Micrococcus luteus = test: Antibacterial activity against Micrococcus luteus IFM 2066; type: functional
Escherichia coli = test: Antibacterial activity against Escherichia coli ATCC 25922; type: functional
Staphylococcus aureus = test: Antibacterial activity against Staphylococcus aureus 209P; type: functional
Bacillus subtilis = test: Antibacterial activity against Bacillus subtilis […]; type: functional
A549 = test: Cytotoxicity against human A549 cells; type: functional, cell-based
Candida albicans = test: Antibacterial activity against Candida albicans ATCC 90028; type: functional
Cryptococcus neoformans = test: Antibacterial activity against Cryptococcus neoformans IFM 46914; type: functional
L1210 = test: Cytotoxicity against mouse L1210 cells; type: functional, cell-based
KB = test: Cytotoxicity against human KB cells; type: functional, cell-based

Row | MIC (Aspergillus niger) | MIC (Micrococcus luteus) | MIC (Escherichia coli) | MIC (Staphylococcus aureus) | MIC (Bacillus subtilis) | MIC (Candida albicans) | MIC (Cryptococcus neoformans) | SMILES | IC50 [1] | IC50 (A549) | IC50 (L1210) | IC50 (KB)
1 | > 16.7 µg/mL | > 16.7 µg/mL | > 16.7 µg/mL | > 16.7 µg/mL | > 16.7 µg/mL | > 16.7 µg/mL | > 16.7 µg/mL | CCCCCCCCCCCCCC[C@@H]1N[C@H](CO)[C@@H]1O | > 2 µg/mL | > 2 µg/mL | 7.5 µg/mL (≈ 25 µM) | > 10 µg/mL
2 | > 16.7 µg/mL | 4.18 µg/mL (≈ 14 µM) | > 16.7 µg/mL | 16.7 µg/mL (≈ 55.8 µM) | 8.35 µg/mL (≈ 27.9 µM) | > 16.7 µg/mL | > 16.7 µg/mL | CCCCCCCCCCCCCC[C@H]1N[C@H](CO)[C@H]1O | 1.23 µg/mL (≈ 4.11 µM) | > 2 µg/mL | 4.5 µg/mL (≈ 15 µM) | 6 µg/mL (≈ 20 µM)
3 | > 16.7 µg/mL | 8.35 µg/mL (≈ 27.9 µM) | > 16.7 µg/mL | > 16.7 µg/mL | 16.7 µg/mL (≈ 55.8 µM) | > 16.7 µg/mL | > 16.7 µg/mL | CCCCCCCCCCCCCC[C@@H]1N[C@H](CO)[C@H]1O | 0.79 µg/mL (≈ 2.64 µM) | 1.97 µg/mL (≈ 6.58 µM) | 4.5 µg/mL (≈ 15 µM) | > 10 µg/mL
4 |  |  |  |  |  |  |  | CCCCCCCCCCCCCC[C@H]1N[C@@H](CO)[C@H]1O | 1.65 µg/mL (≈ 5.51 µM) | 1.38 µg/mL (≈ 4.61 µM) | > 10 µg/mL | > 10 µg/mL
5 | > 16.7 µg/mL | 1.84 µg/mL (≈ 6.14 µM) | > 16.7 µg/mL | 8.35 µg/mL (≈ 27.9 µM) | 4.18 µg/mL (≈ 14 µM) | > 16.7 µg/mL | > 16.7 µg/mL | CCCCCCCCCCCCCC[C@@H]1N[C@@H](CO)[C@@H]1O | 0.56 µg/mL (≈ 1.87 µM) | 0.34 µg/mL (≈ 1.14 µM) | 4.5 µg/mL (≈ 15 µM) | 3.4 µg/mL (≈ 11.4 µM)
6 | > 16.7 µg/mL | 4.18 µg/mL (≈ 14 µM) | 8.35 µg/mL (≈ 27.9 µM) | 8.35 µg/mL (≈ 27.9 µM) | 4.18 µg/mL (≈ 14 µM) | > 16.7 µg/mL | > 16.7 µg/mL | CCCCCCCCCCCCCC[C@H]1N[C@@H](CO)[C@@H]1O | 0.17 µg/mL (≈ 0.568 µM) | 0.22 µg/mL (≈ 0.735 µM) | 1.6 µg/mL (≈ 5.34 µM) | 3.2 µg/mL (≈ 10.7 µM)
7 | > 16.7 µg/mL | > 16.7 µg/mL | > 16.7 µg/mL | > 16.7 µg/mL | > 16.7 µg/mL | > 16.7 µg/mL | > 16.7 µg/mL | CC(C)CC[C@H](O)CCCCCCCCC[C@@H]1N[C@@H](CO)[C@@H]1O | > 2 µg/mL | > 2 µg/mL | 2.9 µg/mL (≈ 8.8 µM) | > 10 µg/mL
